# Source: ChEMBL document CHEMBL3988442, “University of Dundee, Small-Polar-MMV Screening Library” (2021)
# “And” between values parts separate entries of the source, which are not always exact repeats. Equal entries are not always repeated.
# Experiments:
# Histidine--tRNA ligase [1] = target: T1, Histidine--tRNA ligase (Trypanosoma cruzi (strain CL Brener), UniProt Q4DA54); assay: Trypanosoma cruzi histidyl tRNA synthetase (Tc-HisRS); type: functional
# T1 sequence (Q4DA54 whole entry): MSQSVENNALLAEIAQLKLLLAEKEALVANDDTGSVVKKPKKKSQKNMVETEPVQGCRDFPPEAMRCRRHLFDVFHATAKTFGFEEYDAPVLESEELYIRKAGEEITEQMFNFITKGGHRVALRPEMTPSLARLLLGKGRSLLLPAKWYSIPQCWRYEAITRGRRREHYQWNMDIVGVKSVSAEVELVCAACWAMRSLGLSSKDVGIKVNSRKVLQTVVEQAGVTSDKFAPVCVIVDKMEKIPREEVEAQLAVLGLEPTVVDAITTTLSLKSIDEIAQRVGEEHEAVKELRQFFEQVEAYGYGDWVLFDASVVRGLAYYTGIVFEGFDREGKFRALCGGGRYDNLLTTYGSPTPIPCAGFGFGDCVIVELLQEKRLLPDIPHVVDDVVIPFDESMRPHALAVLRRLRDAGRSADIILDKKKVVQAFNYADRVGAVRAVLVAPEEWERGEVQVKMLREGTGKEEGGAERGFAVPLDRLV
# Schistosoma mansoni = assay: High throughput screening of compounds against Schistosoma mansoni motility; type: functional; set-up: dose or concentration left out as unconfirmed
# [2] = target: Chromo domain-containing protein 1 (Saccharomyces cerevisiae (strain ATCC 204508 / S288c) (Baker's yeast), UniProt P32657); assay: ScCHD-1 Enzyme Inhibition Assay; type: functional
# Plasmodium falciparum = assay: Calibr Malaria Delayed Death Assay SOP; type: functional, organism-based
# Tryptophan--tRNA ligase = Tryptophan--tRNA ligase (Mycobacterium tuberculosis (strain ATCC 25618 / H37Rv), UniProt P9WFT3); assay: Biochemical assay for Mt-TrpRS; type: functional
# ClpP1P2 = ClpP1P2 (Mycobacterium tuberculosis (strain ATCC 25618 / H37Rv), UniProt P9WPC3+P9WPC5); assay: in vitro assay to detect presence of AMC directly proportional to the activity of ClpP1P2. GHDDI collaboration.; type: functional
# [3] = target: T2, Coenzyme A biosynthesis bifunctional protein CoaBC (Mycobacterium tuberculosis (strain ATCC 25618 / H37Rv), UniProt P9WNZ1); assay: Biomol Green assay for MtCoaBC inhibitor, OD650 read; type: functional
# T2 sequence (P9WNZ1 whole entry): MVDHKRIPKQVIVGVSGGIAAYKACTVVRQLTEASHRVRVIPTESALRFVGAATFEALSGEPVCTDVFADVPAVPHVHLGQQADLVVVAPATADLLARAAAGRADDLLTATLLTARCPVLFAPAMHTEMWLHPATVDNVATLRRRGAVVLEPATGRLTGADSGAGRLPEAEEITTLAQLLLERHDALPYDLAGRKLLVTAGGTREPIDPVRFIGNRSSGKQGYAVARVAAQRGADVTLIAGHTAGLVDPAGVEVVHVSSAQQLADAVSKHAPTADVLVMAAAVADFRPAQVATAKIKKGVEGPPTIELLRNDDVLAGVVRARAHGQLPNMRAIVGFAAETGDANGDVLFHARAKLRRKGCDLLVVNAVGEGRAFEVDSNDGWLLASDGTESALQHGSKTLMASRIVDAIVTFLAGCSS
# Histidine--tRNA ligase [4] = target: T3, Histidine--tRNA ligase (Leishmania infantum, UniProt A4I591); assay: Leishmania infantum Histidine tRNA synthetase (LdHisRS); type: functional
# T3 sequence (A4I591 whole entry): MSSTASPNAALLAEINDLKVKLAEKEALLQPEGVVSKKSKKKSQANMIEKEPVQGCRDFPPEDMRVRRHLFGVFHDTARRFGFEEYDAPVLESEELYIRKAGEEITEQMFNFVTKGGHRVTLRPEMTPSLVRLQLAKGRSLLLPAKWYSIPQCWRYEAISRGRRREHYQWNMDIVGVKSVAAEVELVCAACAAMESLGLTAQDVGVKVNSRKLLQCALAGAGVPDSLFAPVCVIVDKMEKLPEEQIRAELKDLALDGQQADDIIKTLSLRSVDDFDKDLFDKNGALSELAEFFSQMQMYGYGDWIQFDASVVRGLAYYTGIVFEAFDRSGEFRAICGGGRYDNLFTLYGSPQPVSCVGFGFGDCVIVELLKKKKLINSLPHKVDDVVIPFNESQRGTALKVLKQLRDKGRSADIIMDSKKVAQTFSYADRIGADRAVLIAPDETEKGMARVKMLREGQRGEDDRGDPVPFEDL
# [5] = target: Sialic acid-binding Ig-like lectin 9 (Homo sapiens, UniProt Q9Y336); assay: Hs-Siglec9 ALPHAscreen SOP 20170721
# [6] = microbe, parasite or virus in culture; settings: Mycobacterium tuberculosis, 72 h, read-out: pIC50 (converted)
# Wolbachia pipientis = assay: Anti-Wolbachia Cell-Based Screen; type: functional
# [7] = microbe, parasite or virus in culture; settings: Mycobacterium tuberculosis, 96 h, read-out: pIC50 (converted)
# Tryptophan--tRNA ligase, sequence (P9WFT3 whole entry): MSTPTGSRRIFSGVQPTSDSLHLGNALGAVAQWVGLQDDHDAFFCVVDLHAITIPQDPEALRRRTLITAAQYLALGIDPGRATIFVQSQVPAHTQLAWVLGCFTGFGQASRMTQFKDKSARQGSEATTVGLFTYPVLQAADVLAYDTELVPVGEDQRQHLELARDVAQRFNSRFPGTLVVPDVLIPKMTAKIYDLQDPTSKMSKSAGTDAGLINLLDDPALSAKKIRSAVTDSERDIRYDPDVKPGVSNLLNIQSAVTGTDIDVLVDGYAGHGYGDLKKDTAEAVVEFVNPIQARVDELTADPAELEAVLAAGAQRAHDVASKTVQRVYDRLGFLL
# Chromo domain-containing protein 1, sequence (P32657 whole entry, the tested form may be a part): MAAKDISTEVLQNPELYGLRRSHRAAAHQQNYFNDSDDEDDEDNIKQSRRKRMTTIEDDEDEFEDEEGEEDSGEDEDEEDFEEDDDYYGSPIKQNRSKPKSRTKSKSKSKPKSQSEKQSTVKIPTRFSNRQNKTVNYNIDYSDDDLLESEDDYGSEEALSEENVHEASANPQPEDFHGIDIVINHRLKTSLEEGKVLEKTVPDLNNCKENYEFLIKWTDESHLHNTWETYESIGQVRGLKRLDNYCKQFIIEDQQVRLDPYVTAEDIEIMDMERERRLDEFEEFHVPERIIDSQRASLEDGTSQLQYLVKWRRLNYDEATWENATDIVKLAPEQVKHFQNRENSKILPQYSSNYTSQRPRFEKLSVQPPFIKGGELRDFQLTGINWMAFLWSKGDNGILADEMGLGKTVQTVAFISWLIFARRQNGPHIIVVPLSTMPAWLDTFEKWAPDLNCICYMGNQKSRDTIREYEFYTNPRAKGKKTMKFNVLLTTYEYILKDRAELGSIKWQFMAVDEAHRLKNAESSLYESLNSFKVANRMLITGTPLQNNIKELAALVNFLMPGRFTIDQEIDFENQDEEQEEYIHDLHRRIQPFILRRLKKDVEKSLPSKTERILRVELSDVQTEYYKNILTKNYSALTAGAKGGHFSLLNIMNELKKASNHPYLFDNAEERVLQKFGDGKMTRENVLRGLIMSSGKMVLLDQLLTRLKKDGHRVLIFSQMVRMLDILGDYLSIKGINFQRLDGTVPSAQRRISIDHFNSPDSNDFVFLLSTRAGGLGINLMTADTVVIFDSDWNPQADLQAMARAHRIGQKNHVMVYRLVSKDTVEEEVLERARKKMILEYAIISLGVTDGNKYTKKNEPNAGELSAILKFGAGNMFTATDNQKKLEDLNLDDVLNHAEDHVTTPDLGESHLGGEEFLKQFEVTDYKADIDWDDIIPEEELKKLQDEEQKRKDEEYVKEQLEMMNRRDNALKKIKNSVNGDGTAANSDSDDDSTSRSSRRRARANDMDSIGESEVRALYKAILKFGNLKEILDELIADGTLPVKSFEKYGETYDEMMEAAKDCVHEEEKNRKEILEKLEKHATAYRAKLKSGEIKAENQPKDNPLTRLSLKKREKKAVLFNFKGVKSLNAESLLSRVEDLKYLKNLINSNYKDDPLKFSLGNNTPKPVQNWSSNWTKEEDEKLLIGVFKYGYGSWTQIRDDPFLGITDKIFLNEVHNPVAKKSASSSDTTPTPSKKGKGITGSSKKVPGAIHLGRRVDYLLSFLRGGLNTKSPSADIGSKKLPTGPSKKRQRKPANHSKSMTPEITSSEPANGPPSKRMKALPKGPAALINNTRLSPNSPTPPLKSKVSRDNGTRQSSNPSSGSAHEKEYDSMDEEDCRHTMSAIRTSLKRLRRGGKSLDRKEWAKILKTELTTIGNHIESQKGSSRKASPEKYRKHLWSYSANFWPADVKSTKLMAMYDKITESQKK
# ClpP1P2, sequence (P9WPC5 whole entry): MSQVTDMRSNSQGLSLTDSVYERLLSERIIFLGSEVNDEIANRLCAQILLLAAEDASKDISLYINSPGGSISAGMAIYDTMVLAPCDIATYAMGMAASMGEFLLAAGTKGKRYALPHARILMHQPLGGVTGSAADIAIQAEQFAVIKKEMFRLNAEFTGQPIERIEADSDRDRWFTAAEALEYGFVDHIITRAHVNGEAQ
# ClpP1P2, sequence (P9WPC3 whole entry): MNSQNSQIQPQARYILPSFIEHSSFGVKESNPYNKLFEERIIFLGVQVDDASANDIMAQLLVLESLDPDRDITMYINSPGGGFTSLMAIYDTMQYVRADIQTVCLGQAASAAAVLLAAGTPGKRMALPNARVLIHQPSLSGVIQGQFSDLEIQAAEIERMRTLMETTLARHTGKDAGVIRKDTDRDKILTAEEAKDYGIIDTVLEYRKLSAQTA
# Sialic acid-binding Ig-like lectin 9, sequence (Q9Y336 whole entry): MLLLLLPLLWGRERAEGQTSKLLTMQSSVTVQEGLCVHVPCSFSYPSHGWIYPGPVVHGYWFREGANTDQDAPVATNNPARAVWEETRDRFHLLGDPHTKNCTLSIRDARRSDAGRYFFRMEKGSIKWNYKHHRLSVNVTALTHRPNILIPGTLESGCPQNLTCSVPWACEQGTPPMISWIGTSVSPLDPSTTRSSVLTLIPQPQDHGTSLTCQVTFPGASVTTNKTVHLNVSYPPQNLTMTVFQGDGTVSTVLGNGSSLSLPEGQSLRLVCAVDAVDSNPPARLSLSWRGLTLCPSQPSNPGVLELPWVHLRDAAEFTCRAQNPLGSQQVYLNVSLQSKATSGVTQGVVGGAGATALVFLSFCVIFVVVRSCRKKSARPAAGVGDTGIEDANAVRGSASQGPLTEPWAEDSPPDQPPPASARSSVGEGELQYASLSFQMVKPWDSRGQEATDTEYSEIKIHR
compound,measurement,setting,value
CCN(CC)CCNC(=O)CCc1c(C)nn(-c2ccccc2Br)c1C,IC50,Histidine--tRNA ligase [1],> 100 µM
Fc1cc(F)cc(CN2CCC(c3cc4ncccc4cn3)CC2)c1,IC50,Histidine--tRNA ligase [1],> 100 µM
CC(C)n1ccnc1CNC(=O)c1cccc(CCC(C)(C)O)c1,IC50,Histidine--tRNA ligase [1],> 100 µM
O=C1N(CC2CCCC2)CCC12CCN(c1ncc(F)cn1)CC2,IC50,Histidine--tRNA ligase [1],> 100 µM
Cc1noc(C)c1CN(C)CC1CCCN1c1cccnn1 (stereo not given),IC50,Histidine--tRNA ligase [1],> 100 µM
CCCn1cc(NC(=O)c2cccnc2O)ccc1=O,IC50,Histidine--tRNA ligase [1],> 100 µM
COc1ccc(C)cc1S(=O)(=O)NCC(c1cccn1C)N(C)C (stereo not given),Percent Effect,Schistosoma mansoni,-44.63%
same,IC50,[2],> 29.5 µM
Cc1nc(CNC2CCCN(c3cccnn3)C2)no1 (stereo not given),IC50,Histidine--tRNA ligase [1],> 100 µM
c1cnnc(N2CCCC(NCc3nc(-c4ccsc4)no3)C2)c1 (stereo not given),IC50,Histidine--tRNA ligase [1],> 100 µM
CC(C)NC(=O)c1nnn(-c2cccc(C(F)(F)F)c2)c1C1CC1,Percent Effect,Schistosoma mansoni,-32.68%
same,IC50,[2],> 29.5 µM
CCCN(CC(=O)NC)C(=O)c1ccc(-c2ccsc2)nc1C,Percent Effect,Schistosoma mansoni,-8.65%
same,IC50,[2],> 29.5 µM
O=C(O)c1ccc(Cc2cccc(F)c2)nc1,IC50,Histidine--tRNA ligase [1],> 100 µM
Cc1nc2ccccc2nc1CN(C)CC1CCCN1c1cccnn1 (stereo not given),IC50,Histidine--tRNA ligase [1],90.5 µM and 50.8 µM
CN(Cc1nc2ccccc2o1)CC1CCCN1c1cccnn1 (stereo not given),IC50,Histidine--tRNA ligase [1],> 100 µM
O=C(O)c1cncc(Cc2cccc(F)c2)c1,IC50,Histidine--tRNA ligase [1],> 100 µM
OCC1CCCCN1c1ccc(-c2nc(-c3ccccc3F)no2)cn1 (stereo not given),pIC50,Plasmodium falciparum,7.272 and 6.795
same,IC50,[2],> 29.5 µM
Cc1cnc(CNc2c(F)cccc2-n2cccn2)o1,Percent Effect,Schistosoma mansoni,-41.52%
same,IC50,[2],> 29.5 µM
Cc1ccc(N2CCCC3(COCCN(c4cnccn4)C3)C2)nn1 (stereo not given),IC50,Histidine--tRNA ligase [1],> 100 µM
CN(Cc1nc(N)c2ccccc2n1)CC1CCCN1c1cccnn1 (stereo not given),IC50,Histidine--tRNA ligase [1],> 100 µM
Cc1ccc(N2CC3(CCN(c4nccs4)C3)C2)nn1,IC50,Histidine--tRNA ligase [1],> 100 µM
Cc1nc(C)n(CC2CCCN2Cc2nc3ccccc3c(=O)[nH]2)n1 (stereo not given),IC50,Histidine--tRNA ligase [1],> 100 µM
c1cnnc(N2CCCC(NCc3nc(-c4cccs4)no3)C2)c1 (stereo not given),IC50,Histidine--tRNA ligase [1],> 100 µM
Cc1ccc(N2CCCC3(COCCN(c4ccccn4)C3)C2)nn1 (stereo not given),IC50,Histidine--tRNA ligase [1],> 100 µM
c1cnnc(N2CCCC(NCc3nc(C4CC4)no3)C2)c1 (stereo not given),IC50,Histidine--tRNA ligase [1],52.8 µM and 48.2 µM
O=C(O)c1ccc2ccc(N3CCN(CC4CC4)CC3)n2c1,IC50,Histidine--tRNA ligase [1],38.6 µM and 57.7 µM
CN(Cc1nc2ccccc2n1C)CC1CCCN1c1cccnn1 (stereo not given),IC50,Histidine--tRNA ligase [1],52.7 µM and 52.1 µM
COc1ccccc1CN(C)C(=O)c1cc(CN2CCC(O)CC2)on1,Percent Effect,Schistosoma mansoni,-57.63%
same,IC50,[2],> 29.5 µM
CCOc1ncccc1NC(=O)c1cc2c(s1)CCC2,Percent Effect,Schistosoma mansoni,-62.61%
same,IC50,[2],> 29.5 µM
CSc1ccccc1CN1CCCn2nc(CNC(=O)N(C)C)cc2C1,Percent Effect,Schistosoma mansoni,-17.72%
same,IC50,[2],> 29.5 µM
Cc1ccc(N2CCCC3(COCCN(c4ncccn4)C3)C2)nn1 (stereo not given),IC50,Histidine--tRNA ligase [1],> 100 µM
Cc1ccc(N2Cc3c(CN(C)C)nn(C)c3C2)nn1,IC50,Histidine--tRNA ligase [1],> 100 µM
Cc1nc(C)n(CC2CCCN2Cc2nc3ccccc3s2)n1 (stereo not given),IC50,Histidine--tRNA ligase [1],> 100 µM
COc1ccc(CNC(=O)C2(C#N)CCCC2)cc1,Percent Effect,Schistosoma mansoni,-106.9%
same,IC50,Tryptophan--tRNA ligase,> 195 µM
same,IC50,[2],> 29.5 µM
CSCCC(=O)N1CCCC1c1ccsc1 (stereo not given),Percent Effect,Schistosoma mansoni,-17.9%
same,IC50,Tryptophan--tRNA ligase,> 195 µM
same,IC50,[2],> 29.5 µM
COc1ncccc1C(=O)Nc1nc2c(s1)CN(S(=O)(=O)C1CC1)CC2,Percent Effect,Schistosoma mansoni,-71.23%
same,IC50,[2],> 29.5 µM
CC(=O)NCCc1ccc(S(=O)(=O)N(CC(C)C)C(C)C)s1,Percent Effect,Schistosoma mansoni,41.16%
same,IC50,[2],> 29.5 µM
O=C1CC(c2ccco2)c2sc(C(=O)O)c(-c3ccccc3)c2N1 (stereo not given),IC50,[2],20.8 µM and 21.6 µM
same,IC50,ClpP1P2,> 100 µM
same,IC50,[3],> 30.2 µM
same,IC50,Histidine--tRNA ligase [4],17.3 µM and 12.6 µM
same,IC50,[5],> 30.2 µM
O=C(Nc1cccc(CN2CCOC2=O)c1)N1CCSCC1,Percent Effect,Schistosoma mansoni,-6.059%
same,IC50,[2],> 29.5 µM
CCc1cnc(CN(C)C2CCN(CCc3ccccn3)C2)o1 (stereo not given),Percent Effect,Schistosoma mansoni,-35.57%
same,IC50,[2],> 29.5 µM
O=C(Cn1cc(-c2ccccc2)ncc1=O)Nc1ccncc1,IC50,[2],> 29.5 µM
same,IC50,ClpP1P2,> 100 µM
COc1ccc(C[C@H]2CN(c3nnc(C)s3)CC[C@@H]2OC)cc1.O=C(O)C(F)(F)F,IC50,[6],> 50.1 µM
same,pIC50,Wolbachia pipientis,5.531
same,IC50,Wolbachia pipientis; Wolbachia pipientis,3.58 µM
same,IC50,[7],24.7 µM
same,IC50,[2],> 29.5 µM
CSCC(CCO)NC(=O)Nc1cc(Br)ccc1C (stereo not given),Percent Effect,Schistosoma mansoni,-20.66%
same,IC50,[2],> 29.5 µM
CCn1ccnc1-c1nc2cc(S(=O)(=O)N3CCCC3)ccc2n1C,Percent Effect,Schistosoma mansoni,-59.51%
same,IC50,[2],> 29.5 µM
O=C(NCC(O)c1ccccc1Cl)c1cccc(-n2cnnn2)c1 (stereo not given),Percent Effect,Schistosoma mansoni,-46.05%
same,IC50,[2],> 29.5 µM
Cc1noc([C@@H]2CCCN2C(=O)C2CCN(C(=O)C3CCC3)CC2)n1,Percent Effect,Schistosoma mansoni,8.394%
same,IC50,[2],> 29.5 µM
CN(C)C(C)(C)CNC(=O)C(C)(C)c1ccccc1F,Percent Effect,Schistosoma mansoni,-62.05%
same,IC50,[2],> 29.5 µM
COC(=O)c1ccc2ccn(CC3CCCO3)c(=O)c2c1 (stereo not given),Percent Effect,Schistosoma mansoni,-62.88%
same,IC50,[2],> 29.5 µM
O=C(Cn1cc(-c2ccccc2)ncc1=O)Nc1nnc[nH]1,IC50,[2],> 29.5 µM
same,IC50,ClpP1P2,> 100 µM
CC(NC(=O)CCCOc1ccccc1Cl)c1ccncc1 (stereo not given),Percent Effect,Schistosoma mansoni,-74.47%
same,IC50,[2],> 29.5 µM
NC(=O)C1CCN(C(=O)c2cccc(CN3CCOCC3)c2)CC1,Percent Effect,Schistosoma mansoni,38.13%
same,IC50,[2],> 29.5 µM
Cc1cccc(NC(=O)Cn2ncc(SCC(N)=O)c(Cl)c2=O)c1C,Percent Effect,Schistosoma mansoni,40.97%
same,IC50,[2],> 29.5 µM
Cc1cc(NC(=O)NCCc2ccsc2)n(C)n1,Percent Effect,Schistosoma mansoni,10.29%
same,IC50,Tryptophan--tRNA ligase,> 195 µM
same,IC50,[2],> 29.5 µM
CC(c1cccnc1)N(C)Cc1csc(-c2ccccn2)n1 (stereo not given),Percent Effect,Schistosoma mansoni,-97.18%
same,IC50,[2],> 29.5 µM
Cc1ccccc1CC(C)NCc1c(C)nn(C)c1N1CCOCC1.Cl (stereo not given),Percent Effect,Schistosoma mansoni,7.535%
same,IC50,[2],> 29.5 µM
O=C(NS(=O)(=O)c1ccccc1Cl)c1cccc2c1OCCO2,Percent Effect,Schistosoma mansoni,-35.61%
same,IC50,[2],> 29.5 µM
Cc1cc(CN(C)C(=O)NC(C)c2nncn2C)no1 (stereo not given),Percent Effect,Schistosoma mansoni,0.6145%
same,IC50,[2],> 29.5 µM
O=C(CN1CCc2ccccc21)Nc1ccc(OC(F)F)cc1,Percent Effect,Schistosoma mansoni,42%
same,IC50,Tryptophan--tRNA ligase,> 195 µM
same,IC50,[2],> 29.5 µM
